Biological target: T1, human CTPS1 (Homo sapiens, UniProt P17812)
T1 construct: FLAG (with GG linker); His8 (with GG linker); purchased Proteros biostructures GmbH
T1 sequence (P17812 1-591): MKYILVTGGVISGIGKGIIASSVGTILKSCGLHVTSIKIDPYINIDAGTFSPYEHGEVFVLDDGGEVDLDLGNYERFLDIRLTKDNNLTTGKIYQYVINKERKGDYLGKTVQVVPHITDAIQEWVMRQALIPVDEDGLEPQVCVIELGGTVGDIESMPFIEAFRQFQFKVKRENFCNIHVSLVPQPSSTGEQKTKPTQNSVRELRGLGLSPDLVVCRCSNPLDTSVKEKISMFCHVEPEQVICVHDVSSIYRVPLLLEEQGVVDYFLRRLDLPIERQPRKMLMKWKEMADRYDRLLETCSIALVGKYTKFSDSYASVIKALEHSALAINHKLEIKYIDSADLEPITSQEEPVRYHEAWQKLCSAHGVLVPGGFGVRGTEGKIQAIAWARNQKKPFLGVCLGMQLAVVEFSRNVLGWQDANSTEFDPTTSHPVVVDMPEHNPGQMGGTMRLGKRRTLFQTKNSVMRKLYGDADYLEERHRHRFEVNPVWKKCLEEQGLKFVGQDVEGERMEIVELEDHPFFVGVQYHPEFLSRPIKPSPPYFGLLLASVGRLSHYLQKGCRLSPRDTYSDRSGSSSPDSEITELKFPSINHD
Experiment: RapidFire/MS-based enzyme selectivity assay (human CTPS1 versus CTPS2), CTPS1 isoform
Type: biochemical
Procedure: Human CTPS1 Versus CTPS2 Selectivity Assessment by RapidFire/MS Analysis.
The enzyme inhibitory activities against each target isoform of interest may be determined for the compounds of the invention using an optimised RapidFire high-throughput mass spectrometry (RF/MS) assay format. RF/MS assays for both human CTPS1 and CTPS2 may be performed in assay buffer consisting of 50 mM HEPES (Merck), 20 mM MgCl2, 5 mM KCl, 1 mM DTT, 0.01% Tween-20, pH to 8.0 accordingly. Human full-length active C-terminal FLAG-His-tag CTPS1 (UniProtKB—P17812, CTPS1[1-591]-[…] (CTPS1[1-591]-SEQ ID NO: 1)) may be obtained from Proteros biostructures GmbH. Human full length active C-terminal FLAG-His-Avi tagged CTPS2 (UniProtKB—Q9NRF8, CTPS2 [1-586]-[…] (CTPS2 [1-586]—SEQ ID NO: 2)) may be obtained from Harker Bio.
Human CTPS (1 or 2) protein may be prepared in 1× assay buffer to the final working protein concentration required for the reaction. A 2 uL volume per well of 2×CTPS (1 or 2) protein may be mixed with 40 nL of compound using acoustic (ECHO) delivery and incubated for 10 minutes at 25° C. Each isoform enzymatic reaction may be subsequently initiated by addition of 2 uL per well of a 2× substrate mix in assay buffer. For hCTPS1: ATP (0.3 mM), UTP (0.2 mM), GTP (0.07 mM) and L-glutamine (0.1 mM). For hCTPS2: ATP (0.1 mM), UTP (0.04 mM), GTP (0.03 mM) and L-glutamine (0.1 mM). Each mixture may be incubated for an appropriate amount of time per isoform within the determined linear phase of the reaction at 25° C. A 80 uL volume of stop solution (1% formic acid with 0.5 uM ^13C9-^15N3-CTP in H2O) may be added and the plate immediately heat-sealed and centrifuged for 10 minutes at 4,000 rpm. Following centrifugation, plates may be loaded onto the Agilent RapidFire microfluidic solid phase extraction system coupled to an API4000 triple quadrupole mass spectrometer (RF/MS) for analysis.
In all cases, the enzyme converts UTP to CTP. Highly specific and sensitive multiple reaction monitoring (MRM) MS methods may be optimised for the detection of the enzymatic reaction product, CTP, and the stable isotope labelled product standard ^13C9-^15N3-CTP. Readout for data analysis may be calculated as the ratio between the peak area of the product CTP and the internal standard ^13C9-^15N3-CTP. For data reporting, the following equation may be used:
(R=ratio/readout, P=product signal area, IS=internal standard signal area)
For each screening plate, the means of the negative (DMSO) and positive control values were used for the calculation of the respective assay window (S/B) and Z′ values. The median of the respective control values was used for calculation of percent inhibition according to the following equation:
(I=Inhibition, Rneq=median of negative control readout values, Rpos=median of positive control readout values, Rsample=sample readout value)
Percentage inhibition was then plotted against compound concentration, and the 50% inhibitory concentration (IC50) was determined from the resultant concentration-response curve.
Fold selectivity between CTPS1 and CTPS2 was subsequently calculated according to the following equation: […]

[1] = RapidFire/MS IC50 values of CTPS1 and CTPS2, Table 15
[2] = RapidFire/MS IC50 values of CTPS1 and CTPS2, Table 17
[3] = Table 16, human CTPS1 over human CTPS2, RapidFire/MS IC50 values

CCOc1cncc(-c2ccc(NC(=O)C(F)(CC)c3cncc(NS(=O)(=O)C4CC4)n3)nc2)n1 (single isomer, unassigned) [P207, 2-(6-(cyclopropanesulfonamido)pyrazin-2-yl)-N-(5-(6-ethoxypyrazin-2-yl)pyridin-2-yl)-2-fluorobutanamide]
Selectivity (fold selectivity between CTPS1 and CTPS2) [1]: + (2-30 fold (+))

CCOc1cncc(-c2ccc(NC(=O)C3(c4ccnc(NS(=O)(=O)C5CC5)n4)CCC(O)CC3)nc2)n1 (single isomer, unassigned) [P227, 1-(2-(cydopropanesulfonamido)pyrimidin-4-yl)-N-(5-(6-ethoxypyrazin-2-yl)pyridin-2-yl)-4-hydroxycyclohexanecarboxamide]
Selectivity (fold selectivity between CTPS1 and CTPS2) [2]: +++ (>60 fold (+++))

CCOc1cncc(-c2ccc(NC(=O)C3(c4ccnc(NS(=O)(=O)C5CC5)n4)CCC(O)CC3)nc2)n1 (single isomer, unassigned) [P228, 1-(2-(cyclopropanesulfonamido)pyrimidin-4-yl)-N-(5-(6-ethoxypyrazin-2-yl)pyridin-2-yl)-4-hydroxycyclohexanecarboxamide]
Selectivity (fold selectivity between CTPS1 and CTPS2) [2]: +++ (>60 fold (+++))

CCOc1cncc(-c2ccc(NC(=O)C3(c4ccnc(NS(=O)(=O)C5CC5)n4)CCC(N(C)C)CC3)nc2)n1 (single isomer, unassigned) [P229, 1-(2-(cyclopropanesulfonamido)pyrimidin-4-yl)-4-(dimethylamino)-N-(5-(6-ethoxypyrazin-2-yl)pyridin-2-yl)cyclohexane-1-carboxamide]
Selectivity (fold selectivity between CTPS1 and CTPS2) [2]: +++ (>60 fold (+++))

CCC(NC(=O)c1ccc(-c2cncc(F)c2)cc1)c1csc(NS(=O)(=O)C2CC2)n1 (single isomer, unassigned) [R68, N-(1-(2-(cyclopropanesulfon-amido)thiazol-4-yl)propyl)-4-(5-fluoropyridin-3-yl)benzamide]
Selectivity (fold selectivity between CTPS1 and CTPS2) [3]: ++ (>30-60 fold (++))

CCC(NC(=O)c1ccc(-c2cncc(F)c2)cc1)c1csc(NS(=O)(=O)C2CC2)n1 (single isomer, unassigned) [R69, N-(1-(2-(cyclopropanesulfon-amido)thiazol-4-yl)propyl)-4-(5-fluoropyridin-3-yl)benzamide]
Selectivity (fold selectivity between CTPS1 and CTPS2) [3]: +++ (>60 fold (+++))

CCOc1cncc(-c2ccc(C(=O)NC(CC)c3csc(NS(=O)(=O)C4CC4)n3)c(F)c2)n1 (single isomer, unassigned) [R70, N-(1-(2-(cyclopropanesulfon-amido)thiazol-4-yl)propyl)-4-(6-ethoxypyrazin-2-yl)-2-fluorobenzamide]
Selectivity (fold selectivity between CTPS1 and CTPS2) [3]: +++ (>60 fold (+++))

CCOc1cncc(-c2ccc(C(=O)NC(CC)c3csc(NS(=O)(=O)C4CC4)n3)c(F)c2)n1 (single isomer, unassigned) [R71, N-(1-(2-(cyclopropanesulfon-amido)thiazol-4-yl)propyl)-4-(6-ethoxypyrazin-2-yl)-2-fluorobenzamide]
Selectivity (fold selectivity between CTPS1 and CTPS2) [3]: +++ (>60 fold (+++))

CCOc1cncc(-c2ccc(C(=O)NC(CCOC)c3csc(NS(=O)(=O)C4CC4)n3)c(F)c2)n1 (single isomer, unassigned) [R92, N-(1-(2-(cyclopropanesulfon-amido)thiazol-4-yl)-3-methoxypropyl)-4-(6-ethoxypyrazin-2-yl)-2-fluorobenzamide]
Selectivity (fold selectivity between CTPS1 and CTPS2) [3]: +++ (>60 fold (+++))

CCOc1cncc(-c2ccc(C(=O)NC(CCOC)c3csc(NS(=O)(=O)C4CC4)n3)c(F)c2)n1 (single isomer, unassigned) [R93, N-(1-(2-(cyclopropanesulfon-amido)thiazol-4-yl)-3-methoxypropyl)-4-(6-ethoxypyrazin-2-yl)-2-fluorobenzamide]
Selectivity (fold selectivity between CTPS1 and CTPS2) [3]: +++ (>60 fold (+++))

CCC(C(=O)Nc1ccc(-c2cncc(Cl)c2)cc1)c1ccnc(NS(=O)(=O)C2CC2)n1 (stereo not drawn) [P1, N-(4-(5-Chloropyridin-3-yl)phenyl)-2-(2-(cyclopropanesulfonamido)pyrimidin-4-yl)butanamide]
Selectivity (fold selectivity between CTPS1 and CTPS2) [1]: + (2-30 fold (+))

CCOc1cncc(-c2ccc(NC(=O)C3(c4ccnc(NS(=O)(=O)C5CC5)n4)CCCC3)cc2)n1 [P2, 1-(2-(Cyclopropanesulfonamido)pyrimidin-4-yl)-N-(4-(6-ethoxypyrazin-2-yl)phenyl)cyclopentanecarboxamide]
Selectivity (fold selectivity between CTPS1 and CTPS2) [1]: +++ (>60 fold (+++))

CC(C)Oc1cncc(-c2ccc(NC(=O)C(C)(C)c3ccnc(NS(=O)(=O)C4CC4)n3)nc2)n1 [P9, 2-(2-(cyclopropanesulfonamido)pyrimidin-4-yl)-N-(5-(6-isopropoxypyrazin-2-yl)pyridin-2-yl)-2-methylpropanamide]
Selectivity (fold selectivity between CTPS1 and CTPS2) [1]: +++ (>60 fold (+++))

CC(C)Oc1cncc(-c2ccc(NC(=O)Cc3ccnc(NS(=O)(=O)C4CC4)n3)c(F)c2)n1 [P12, 2-(2-(cyclopropanesulfonamido)pyrimidin-4-yl)-N-(2-fluoro-4-(6-isopropoxypyrazin-2-yl)phenyl)acetamide]
Selectivity (fold selectivity between CTPS1 and CTPS2) [1]: ++ (>30-60 fold (++))

O=C(Cc1ccnc(NS(=O)(=O)C2CC2)n1)Nc1ccc(-c2cccnc2)cc1 [P16, 2-(2-(cyclopropanesulfonamido)pyrimidin-4-yl)-N-(4-(pyridin-3-yl)phenyl)acetamide]
Selectivity (fold selectivity between CTPS1 and CTPS2) [1]: ++ (>30-60 fold (++))

CCOc1cncc(-c2ccc(NC(=O)Cc3ccnc(NS(=O)(=O)C4CC4)n3)cc2)n1 [P18, 2-(2-(cyclopropanesulfonamido)pyrimidin-4-yl)-N-(4-(6-ethoxypyrazin-2-yl)phenyl)acetamide]
Selectivity (fold selectivity between CTPS1 and CTPS2) [1]: ++ (>30-60 fold (++))

CC(C)Oc1cncc(-c2ccc(NC(=O)Cc3ccnc(NS(=O)(=O)C4CC4)n3)cc2)n1 [P21, 2-(2-(cyclopropanesulfonamido)pyrimidin-4-yl)-N-(4-(6-isopropoxypyrazin-2-yl)phenyl)acetamide]
Selectivity (fold selectivity between CTPS1 and CTPS2) [1]: ++ (>30-60 fold (++))

CCOc1cncc(-c2ccc(NC(=O)C(C)(C)c3ccnc(NS(=O)(=O)C4CC4)n3)nc2)n1 [P31, 2-(2-(cyclopropanesulfonamido)pyrimidin-4-yl)-N-(5-(6-ethoxypyrazin-2-yl)pyridin-2-yl)-2-methylpropanamide]
Selectivity (fold selectivity between CTPS1 and CTPS2) [1]: +++ (>60 fold (+++))

CCOc1cncc(-c2ccc(NC(=O)C(C)(C)c3ccnc(NS(=O)(=O)C4CC4)n3)c(C#N)c2)n1 [P34, N-(2-cyano-4-(6-ethoxypyrazin-2-yl)phenyl)-2-(2-(cyclopropanesulfonamido)pyrimidin-4-yl)-2-methylpropanamide]
Selectivity (fold selectivity between CTPS1 and CTPS2) [1]: + (2-30 fold (+))

CCOc1cncc(-c2ccc(NC(=O)C(C)(C)c3ccnc(NS(=O)(=O)C4CC4)n3)c(F)c2)n1 [P38, 2-(2-(cyclopropanesulfonamido)pyrimidin-4-yl)-N-(4-(6-ethoxypyrazin-2-yl)-2-fluorophenyl)-2-methylpropanamide]
Selectivity (fold selectivity between CTPS1 and CTPS2) [1]: + (2-30 fold (+))

CC(C)Oc1cncc(-c2ccc(NC(=O)C(C)(C)c3ccnc(NS(=O)(=O)C4CC4)n3)c(F)c2)n1 [P39]
Selectivity (fold selectivity between CTPS1 and CTPS2) [1]: + (2-30 fold (+))

Source: patent US20230086703A1, “N-(4-(5-chloropyridin-3-yl)phenyl)-2-(2-(cyclopropanesulfonamido)pyrimidin-4-yl) butanamide derivatives and related compounds as human CTPS1 inhibitors for the treatment of proliferative diseases” (Step Pharma S.A.S., priority 2019, published 2023)
